Assay results as given in article PMC10477861, “Efficient Mining of Anticancer Peptides from Gut Metagenome” (Advanced Science, 2023).
Where no end group is shown, it is not given here.

Experiments:
[1] = system: CT26 cells; assay: Propidium iodide (PI) assay of CT26 membrane damage; type: cell-based, Murine; conditions: pACP1780 6.23 µM, pACP2283 10.56 µM, 1, 2, 6, 12 h, PI 10 µg ml-1 45 min, ex/em 535/617 nm
Method: To explore the anticancer effects of pACP2283 and pACP1780 at the cellular level, we co‐cultured confluent CT26 cells with these pACPs.
Cell viability was assessed using propidium iodide (PI, ZS822‐1) according to the manufacturer's instructions. Briefly, CT26 cells were seeded in a 96‐well plate at a density of 1×10^4 cells per well. After 24 h, pACP1780 and pACP2283 were added to the wells at concentrations of 6.23 and 10.56 µM, respectively. The plate was then incubated for 1, 2, 6, and 12 h. Subsequently, the cells were cultured in medium containing 10 µg ml^−1 PI for 45 min. The fluorescence intensity was measured using a CytationTM 5 instrument (Bio Tek) with excitation/emission wavelengths of 535/617 nm.

[2] = system: MDA-MB-231; assay: MTT primary screening of anticancer activity, MDA-MB-231; type: cell-based; conditions: 25 µM pACP, 24 h, maintenance medium 1% FBS, ratio of viability to vehicle (PBS), at least three technical repetitions
Method in brief: (§1)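 Single-dose screen: 25 µM peptide (final), 24 h, 1% FBS maintenance medium, cells ~60% confluent; MTT viability read-out.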

[3] = system: T47D; assay: MTT primary screening of anticancer activity, T47D; type: cell-based; conditions: 25 µM pACP, 24 h, maintenance medium 1% FBS, ratio of viability to vehicle (PBS), at least three technical repetitions
Method in brief: as §1

[4] = system: B16; assay: MTT primary screening of anticancer activity, B16; type: cell-based, Mouse; conditions: 25 µM pACP, 24 h, maintenance medium 1% FBS, ratio of viability to vehicle (PBS), at least three technical repetitions
Method in brief: as §1

[5] = system: MCF7; assay: MTT primary screening of anticancer activity, MCF7; type: cell-based; conditions: 25 µM pACP, 24 h, maintenance medium 1% FBS, ratio of viability to vehicle (PBS), at least three technical repetitions
Method in brief: as §1

[6] = system: MDA-MB-453; assay: MTT primary screening of anticancer activity, MDA-MB-453; type: cell-based; conditions: 25 µM pACP, 24 h, maintenance medium 1% FBS, ratio of viability to vehicle (PBS), at least three technical repetitions
Method in brief: as §1

[7] = system: Hela; assay: MTT primary screening of anticancer activity, Hela; type: cell-based, Human; conditions: 25 µM pACP, 24 h, maintenance medium 1% FBS, ratio of viability to vehicle (PBS), at least three technical repetitions
Method in brief: as §1

[8] = system: Caco2; assay: MTT primary screening of anticancer activity, Caco2; type: cell-based, Human; conditions: 25 µM pACP, 24 h, maintenance medium 1% FBS, ratio of viability to vehicle (PBS), at least three technical repetitions
Method in brief: as §1

[9] = system: CT26 subcutaneous tumors; assay: CT26 subcutaneous xenograft tumor model in nude mice; type: in vivo; parameters: Mean Diff, tumor volume growth, Control vs. peptide (Dunnett's multiple comparisons test): unit not given here; conditions: for tumor size compared to control-treated animals: CT26 subcutaneous tumors, athymic nude mice, two intratumoral injections (day 0, day 2), monitored six days, p <0.05; for tumor size compared to control-treated animals / signs of acute toxicity in tumor-bearing mice / survival of treated mice: 0.80 mg kg-1 pACP2283 or 0.51 mg kg-1 pACP1780; for Mean Diff, tumor volume growth, Control vs. peptide (Dunnett's multiple comparisons test): CT26 tumors in nude mice, intratumoral pACP1780 0.51 mg kg-1 or pACP2283 0.80 mg kg-1 on day 0 and day 2, six mice per group; for signs of acute toxicity in tumor-bearing mice / survival of treated mice: athymic nude mice with CT26 tumors, two intratumoral injections
Method: To evaluate the translational relevance of our methodology, we selected these two pACPs for in vivo studies. […] Subcutaneous tumors were established using CT26 cells in athymic nude mice, and the animals were randomized to receive two intratumoral injections of 0.80 mg kg^−1 pACP2283, 0.51 mg kg^−1 pACP1780, or PBS control on day 0 and day 2. The dosage of pACPs was calculated as five times the CC50 of each compound in CT26 cells. Tumor size was monitored daily for six days (Figure 3c).
Six‐week‐old female nude mice were obtained from Beijing HFK Bioscience Co., Ltd. and were acclimated to the laboratory environment for one‐week prior to the commencement of the experiments. All experimental procedures were conducted in a manner that minimized discomfort, distress, and pain to the animals. Mice were group‐housed, with a maximum of five animals per cage, under a light‐dark cycle of 12 h, with a constant temperature of 21–22°C and humidity of 55 ± 5%. They were provided with standard rodent chow and water ad libitum. The Ethics Committee of the Institute of Microbiology, Chinese Academy of Sciences approved all procedures (SQIMCAS2021005).
Murine colorectal carcinoma cell line CT26 was cultured in RPMI‐1640 medium supplemented with 10% fetal bovine serum and 1% penicillin/streptomycin at 37°C and 5% CO2. Tumor formation was induced by injecting was 5×106 ml^−1 CT26 cells into the right forelimb of each mouse. All mice were housed in the same environment with sufficient food and water. Throughout the study, the survival status and tumor progression of the mice on a daily basis were observed. The mice were randomly divided into three groups and received different treatments. CT26 cells were injected on […] for all groups. On Day 0, ACPs (pACP1780: 0.51 mg kg^−1 and pACP2283: 0.80 mg kg^−1) were intratumorally injected, while the Control group received an intratumoral injection of the same volume of PBS. On Day 2, the ACPs were intratumorally injected again, and the Control group received an injection of the same volume of PBS.

[10] = system: SK-BR-3; assay: MTT primary screening of anticancer activity, SK-BR-3; type: cell-based; conditions: 25 µM pACP, 24 h, maintenance medium 1% FBS, ratio of viability to vehicle (PBS), at least three technical repetitions
Method in brief: as §1

[11] = system: HT29; assay: MTT primary screening of anticancer activity, HT29; type: cell-based, Human; conditions: 25 µM pACP, 24 h, maintenance medium 1% FBS, ratio of viability to vehicle (PBS), at least three technical repetitions
Method in brief: as §1

RRFAWIGKLQSRKVRNNIRQYRTKIVRQMRRQIFRQMKQKAE [pACP1780]
PI fluorescence intensity (damaged cell membranes) [1]: significantly increased fluorescence intensity | Survival rate of cancer cells in primary screening [2]: 0.09 | Survival rate of cancer cells in primary screening [3]: 0.0167 | Survival rate of cancer cells in primary screening [4]: 0.41 | Survival rate of cancer cells in primary screening [5]: 0.0113 | Survival rate of cancer cells in primary screening [6]: 0.085 | Survival rate of cancer cells in primary screening [7]: 0.00724 | Survival rate of cancer cells in primary screening [8]: 0.74 | tumor size compared to control-treated animals [9]: significantly reduced tumor size | Mean Diff, tumor volume growth, Control vs. peptide (Dunnett's multiple comparisons test) ([9]; Day 0): 0 | Mean Diff, tumor volume growth, Control vs. peptide (Dunnett's multiple comparisons test) ([9]; Day 1): 0.4906 | Mean Diff, tumor volume growth, Control vs. peptide (Dunnett's multiple comparisons test) ([9]; Day 2): 0.7153 | Mean Diff, tumor volume growth, Control vs. peptide (Dunnett's multiple comparisons test) ([9]; Day 3): 0.6812 | Mean Diff, tumor volume growth, Control vs. peptide (Dunnett's multiple comparisons test) ([9]; Day 4): 1.652 | Mean Diff, tumor volume growth, Control vs. peptide (Dunnett's multiple comparisons test) ([9]; Day 5): 2.41 | signs of acute toxicity in tumor-bearing mice [9]: no overt signs of acute toxicity were observed | survival of treated mice [9]: all mice survived | Survival rate of cancer cells in primary screening [10]: 0.03 | Survival rate of cancer cells in primary screening [11]: 0.33

WWRRAERSVRRFFGTPIGPFPEIFGRRKAHKKKIIAKFDSVNG [pACP2283]
PI fluorescence intensity (damaged cell membranes) [1]: significantly increased fluorescence intensity | Survival rate of cancer cells in primary screening [2]: 0.06 | Survival rate of cancer cells in primary screening [3]: 0.0119 | Survival rate of cancer cells in primary screening [4]: 0.28 | Survival rate of cancer cells in primary screening [5]: 0.0549 | Survival rate of cancer cells in primary screening [6]: 0.03 | Survival rate of cancer cells in primary screening [7]: 0.00225 | Survival rate of cancer cells in primary screening [8]: 1.00 | tumor size compared to control-treated animals [9]: significantly reduced tumor size | Mean Diff, tumor volume growth, Control vs. peptide (Dunnett's multiple comparisons test) ([9]; Day 0): 0 | Mean Diff, tumor volume growth, Control vs. peptide (Dunnett's multiple comparisons test) ([9]; Day 1): 0.7285 | Mean Diff, tumor volume growth, Control vs. peptide (Dunnett's multiple comparisons test) ([9]; Day 2): 1.385 | Mean Diff, tumor volume growth, Control vs. peptide (Dunnett's multiple comparisons test) ([9]; Day 3): 1.698 | Mean Diff, tumor volume growth, Control vs. peptide (Dunnett's multiple comparisons test) ([9]; Day 4): 2.95 | Mean Diff, tumor volume growth, Control vs. peptide (Dunnett's multiple comparisons test) ([9]; Day 5): 3.362 | signs of acute toxicity in tumor-bearing mice [9]: no overt signs of acute toxicity were observed | survival of treated mice [9]: all mice survived | Survival rate of cancer cells in primary screening [10]: 0.0341 | Survival rate of cancer cells in primary screening [11]: 0.51
